Measured values reported in patent publication US7501542B2, “Highly-packed polycationic ammonium, sulfonium and phosphonium lipids” (Invitrogen Corporation, priority 1993, dated 2009).

Tests used:
[1] = tested on: primary human fibroblasts; assay: Transfection of primary human fibroblasts with pCMV β-gal DNA, in situ β-galactosidase staining; assay type: cell-based
Experimental: All cell lines were obtained from American Type Culture Collection (Rockville, Md.). Standard tissue culture methods were employed. […] Human fibroblasts were isolated from neonatal foreskin tissue and prepared as follows. Rinsed, fresh tissue was exposed to 25 units/ml dispase (Collaborative Research, Bedford, Mass.) overnight at 4° C., separated into epidermis and dermis, and the minced dermis was digested 10 min at 37° C. in 0.25% (v/v) trypsin, 1 mM EDTA. The reaction was stopped by a rinse and centrifugation in DMEM with 10% (v/v) FBS, in which the cells were also cultured. All cultures were incubated at 37° C., 5% CO2. Media for all cultures routinely included 100 units/ml penicillin and 100 μg/ml streptomycin.
For transfection of CHO-K1, NIH-3T3, and human fibroblast cells in 24-well plates, lipid and DNA (PCMV β-gal) were diluted separately into 25 μl aliquots of Opti-MEM I Reduced Serum Medium (GIBCO BRL; serum-free). […]
Cells were rinsed with PBS, fixed for 5 minutes in 2% (v/v) formaldehyde, 0.2% glutaraldehyde in PBS, rinsed twice with PBS, and stained 2 hr to overnight with 0.1% β-gal, 5 mM potassium ferrocyanide, 5 mM potassium ferrocyanide, 2 mM MgCl2 in PBS. […] Transfection efficiency is evaluated by counting or estimating the number of β-gal positive cells (blue-stained cells). […]

NIH-3T3 cells = assay: Transfection of NIH-3T3 cells with pCMV β-gal DNA, in situ β-galactosidase staining; assay type: cell-based
Experimental: (§1) All cell lines were obtained from American Type Culture Collection (Rockville, Md.). Standard tissue culture methods were employed. Chinese hamster ovary (CHO-K1) cells were cultured in EMEM (GIBCO BRL) containing 2 mM proline and 5% (v/v) fetal bovine serum (FBS). NIH 3T3 cells were cultured in Dulbecco's-modified Eagle's medium (DMEM) containing 10% (v/v) calf serum (CS). Jurkat cells were cultured in RPMI 1640 (GIBCO BRL) containing 10% (v/v) FBS. Human fibroblasts were isolated from neonatal foreskin tissue and prepared as follows. Rinsed, fresh tissue was exposed to 25 units/ml dispase (Collaborative Research, Bedford, Mass.) overnight at 4° C., separated into epidermis and dermis, and the minced dermis was digested 10 min at 37° C. in 0.25% (v/v) trypsin, 1 mM EDTA. The reaction was stopped by a rinse and centrifugation in DMEM with 10% (v/v) FBS, in which the cells were also cultured. All cultures were incubated at 37° C., 5% CO2. Media for all cultures routinely included 100 units/ml penicillin and 100 μg/ml streptomycin. […]
(§2) Cell lysates were assayed for β-galactosidase activity as described by Sanes et al. (1986) EMBO J. 5:3133. […] Transfection efficiency is evaluated by counting or estimating the number of β-gal positive cells (blue-stained cells). […]

CHO-K1 cells = assay: Transfection of CHO-K1 cells with pCMV β-gal DNA, in situ β-galactosidase staining; assay type: cell-based, Chinese hamster; conditions: CHO-K1 cells (Table 3)
Experimental: as §1, §2

Jurkat cells = assay: Transfection of Jurkat cells with pCMVCAT DNA, CAT activity of cell lysates; assay type: cell-based
Experimental: All cell lines were obtained from American Type Culture Collection (Rockville, Md.). Standard tissue culture methods were employed. Chinese hamster ovary (CHO-K1) cells were cultured in EMEM (GIBCO BRL) containing 2 mM proline and 5% (v/v) fetal bovine serum (FBS). NIH 3T3 cells were cultured in Dulbecco's-modified Eagle's medium (DMEM) containing 10% (v/v) calf serum (CS). Jurkat cells were cultured in RPMI 1640 (GIBCO BRL) containing 10% (v/v) FBS. Human fibroblasts were isolated from neonatal foreskin tissue and prepared as follows. Rinsed, fresh tissue was exposed to 25 units/ml dispase (Collaborative Research, Bedford, Mass.) overnight at 4° C., separated into epidermis and dermis, and the minced dermis was digested 10 min at 37° C. in 0.25% (v/v) trypsin, 1 mM EDTA. The reaction was stopped by a rinse and centrifugation in DMEM with 10% (v/v) FBS, in which the cells were also cultured. All cultures were incubated at 37° C., 5% CO2. Media for all cultures routinely included 100 units/ml penicillin and 100 μg/ml streptomycin.
For transfection of Jurkat cells in suspension, lipid and DNA (pCMVCAT) were diluted separately into 500 μl aliquots of Opti-MEM I Reduced Serum Medium (GIBCO BRL; serum-free). These aliquots were gently mixed and incubated at room temperature for 15-45 minutes to form lipid-DNA complexes. […]

## N,N,N′,N′-tetramethyltetrapalmyl-sperminetetrammonium iodide [Compound 3]
[1]; human fibroblasts, lower concentration of lipid required for optimal activity
  transfection efficiency relative to DOSPA: comparable to DOSPA
[1]; primary human fibroblast cells (Table 1)
  effectiveness for DNA transfection: highly effective
NIH-3T3 cells; NIH-3T3 cells (Table 2)
  effectiveness for DNA transfection: highly effective
NIH-3T3 cells; NIH-3T3 cells, low amounts of DNA
  transfection effectiveness relative to DOSPA: approximately 10 fold
CHO-K1 cells
  effectiveness for DNA transfection: highly effective
Jurkat cells; Jurkat cells (Table 4)
  effectiveness for DNA transfection: highly effective
Jurkat cells; Jurkat cells, lower concentration of lipid required for optimal activity
  transfection efficiency relative to DOSPA: comparable to DOSPA
